Reference: US12077503B2, “Substituted cyclic amides and their use as herbicides” (FMC CORPORATION, priority 2015, dated 2024)

Experiments:
Assay type in all cases: in vivo
[1] = tested on: Kochia (Kochia scoparia); test: Test A preemergence; conditions: for Plant response rating, Kochia: 125 g ai/ha, preemergence, 0 to 100 scale (0 no effect, 100 complete control); for Kochia plant response rating (0 to 100 scale, 0 is no effect, 100 is complete control): Preemergence, 500 g ai/ha, visual injury approx. 10 d
How it was run: (§1)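 Each rating is a visual injury score from 0 to 100 given about 10 d after treatment, judged against untreated controls kept alongside in the greenhouse. In loam soil–sand blend, seeds got a preemergence directed soil spray, while postemergence plants were 2 to 10 cm tall at spraying.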

[2] = tested on: barnyardgrass (Echinochloa crus-galli); test: Test A preemergence; conditions: for Plant response rating, Barnyardgrass: 125 g ai/ha, preemergence, 0 to 100 scale (0 no effect, 100 complete control); for Barnyardgrass plant response rating (0 to 100 scale, 0 is no effect, 100 is complete control): Preemergence, 500 g ai/ha, visual injury approx. 10 d
How it was run: as §1

[3] = tested on: giant foxtail (Setaria faberii); test: Test A preemergence; conditions: for Plant response rating, Foxtail, Giant: 125 g ai/ha, preemergence, 0 to 100 scale (0 no effect, 100 complete control); for Foxtail, Giant plant response rating (0 to 100 scale, 0 is no effect, 100 is complete control): Preemergence, 500 g ai/ha, visual injury approx. 10 d
How it was run: as §1

[4] = tested on: pigweed (Amaranthus retroflexus); test: Test A preemergence; conditions: for Plant response rating, Pigweed: 125 g ai/ha, preemergence, 0 to 100 scale (0 no effect, 100 complete control); for Pigweed plant response rating (0 to 100 scale, 0 is no effect, 100 is complete control): Preemergence, 500 g ai/ha, visual injury approx. 10 d
[5] = tested on: ragweed (common ragweed, Ambrosia elatior); test: Test A preemergence; conditions: for Plant response rating, Ragweed: 125 g ai/ha, preemergence, 0 to 100 scale (0 no effect, 100 complete control); for Ragweed plant response rating (0 to 100 scale, 0 is no effect, 100 is complete control): Preemergence, 500 g ai/ha, visual injury approx. 10 d
How it was run: as §1

[6] = tested on: ryegrass, Italian (Italian ryegrass, Lolium multiflorum); test: Test A preemergence; conditions: for Plant response rating, Ryegrass, Italian: 125 g ai/ha, preemergence, 0 to 100 scale (0 no effect, 100 complete control); for Ryegrass, Italian plant response rating (0 to 100 scale, 0 is no effect, 100 is complete control): Preemergence, 500 g ai/ha, visual injury approx. 10 d
How it was run: as §1

[7] = tested on: Galium (catchweed bedstraw, Galium aparine); test: Test A postemergence; conditions: postemergence; for Galium plant response rating: 125 g ai/ha, visual injury rating on 0 to 100 scale (0 no effect, 100 complete control), approx. 10 d; for Plant response rating, Galium: 500 g ai/ha, 0 to 100 scale, 0 no effect, 100 complete control
How it was run: as §1

[8] = tested on: Kochia (Kochia scoparia); test: Test A postemergence; conditions: postemergence; for Kochia plant response rating: 125 g ai/ha, visual injury rating on 0 to 100 scale (0 no effect, 100 complete control), approx. 10 d; for Plant response rating, Kochia: 500 g ai/ha, 0 to 100 scale, 0 no effect, 100 complete control
How it was run: as §1

[9] = tested on: barnyardgrass (Echinochloa crus-galli); test: Test A postemergence; conditions: postemergence; for Barnyardgrass plant response rating: 125 g ai/ha, visual injury rating on 0 to 100 scale (0 no effect, 100 complete control), approx. 10 d; for Plant response rating, Barnyardgrass: 500 g ai/ha, 0 to 100 scale, 0 no effect, 100 complete control
How it was run: as §1

[10] = tested on: blackgrass (Alopecurus myosuroides); test: Test A postemergence; conditions: postemergence; for Blackgrass plant response rating: 125 g ai/ha, visual injury rating on 0 to 100 scale (0 no effect, 100 complete control), approx. 10 d; for Plant response rating, Blackgrass: 500 g ai/ha, 0 to 100 scale, 0 no effect, 100 complete control
How it was run: as §1

[11] = tested on: corn (Zea mays); test: Test A postemergence; conditions: postemergence; for Corn plant response rating: 125 g ai/ha, visual injury rating on 0 to 100 scale (0 no effect, 100 complete control), approx. 10 d; for Plant response rating, Corn: 500 g ai/ha, 0 to 100 scale, 0 no effect, 100 complete control
How it was run: as §1

[12] = tested on: giant foxtail (Setaria faberii); test: Test A postemergence; conditions: postemergence; for Foxtail, Giant plant response rating: 125 g ai/ha, visual injury rating on 0 to 100 scale (0 no effect, 100 complete control), approx. 10 d; for Plant response rating, Foxtail, Giant: 500 g ai/ha, 0 to 100 scale, 0 no effect, 100 complete control
How it was run: as §1

[13] = tested on: pigweed (Amaranthus retroflexus); test: Test A postemergence; conditions: postemergence; for Pigweed plant response rating: 125 g ai/ha, visual injury rating on 0 to 100 scale (0 no effect, 100 complete control), approx. 10 d; for Plant response rating, Pigweed: 500 g ai/ha, 0 to 100 scale, 0 no effect, 100 complete control
How it was run: as §1

[14] = tested on: ragweed (common ragweed, Ambrosia elatior); test: Test A postemergence; conditions: postemergence; for Ragweed plant response rating: 125 g ai/ha, visual injury rating on 0 to 100 scale (0 no effect, 100 complete control), approx. 10 d; for Plant response rating, Ragweed: 500 g ai/ha, 0 to 100 scale, 0 no effect, 100 complete control
How it was run: as §1

[15] = tested on: ryegrass, Italian (Italian ryegrass, Lolium multiflorum); test: Test A postemergence; conditions: postemergence; for Ryegrass, Italian plant response rating: 125 g ai/ha, visual injury rating on 0 to 100 scale (0 no effect, 100 complete control), approx. 10 d; for Plant response rating, Ryegrass, Italian: 500 g ai/ha, 0 to 100 scale, 0 no effect, 100 complete control
How it was run: as §1

[16] = tested on: wheat (Triticum aestivum); test: Test A postemergence; conditions: postemergence; for Wheat plant response rating: 125 g ai/ha, visual injury rating on 0 to 100 scale (0 no effect, 100 complete control), approx. 10 d; for Plant response rating, Wheat: 500 g ai/ha, 0 to 100 scale, 0 no effect, 100 complete control
How it was run: as §1

[17] = tested on: barnyardgrass (Echinochloa crus-galli); test: Test B flooded paddy test; conditions: Flood, 0 to 100 scale where 0 is no effect and 100 is complete control, 13 to 15 d
How it was run: (§2)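 Percent control, visually estimated after 13–15 d in the greenhouse on a 0–100 basis, compares treated pots with untreated ones; compound was put into paddy water 3 cm above the soil when plants had two leaves.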

[18] = tested on: ducksalad (Heteranthera limosa); test: Test B flooded paddy test; conditions: Flood, 0 to 100 scale where 0 is no effect and 100 is complete control, 13 to 15 d
How it was run: as §2

[19] = tested on: rice (Oryra sativa); test: Test B flooded paddy test; conditions: Flood, 0 to 100 scale where 0 is no effect and 100 is complete control, 13 to 15 d
How it was run: as §2

[20] = tested on: sedge, umbrella (small-flower umbrella sedge, Cyperus difformis); test: Test B flooded paddy test; conditions: Flood, 0 to 100 scale where 0 is no effect and 100 is complete control, 13 to 15 d
How it was run: as §2

Structure (SMILES)	Plant response rating, Kochia [1]	Kochia plant response rating (0 to 100 scale, 0 is no effect, 100 is complete control) [1]	Plant response rating, Barnyardgrass [2]	Barnyardgrass plant response rating (0 to 100 scale, 0 is no effect, 100 is complete control) [2]	Plant response rating, Foxtail, Giant [3]	Foxtail, Giant plant response rating (0 to 100 scale, 0 is no effect, 100 is complete control) [3]	Plant response rating, Pigweed [4]	Pigweed plant response rating (0 to 100 scale, 0 is no effect, 100 is complete control) [4]	Plant response rating, Ragweed [5]	Ragweed plant response rating (0 to 100 scale, 0 is no effect, 100 is complete control) [5]	Plant response rating, Ryegrass, Italian [6]	Ryegrass, Italian plant response rating (0 to 100 scale, 0 is no effect, 100 is complete control) [6]	Galium plant response rating [7]	Plant response rating, Galium [7]	Kochia plant response rating [8]	Plant response rating, Kochia [8]	Barnyardgrass plant response rating [9]	Plant response rating, Barnyardgrass [9]	Blackgrass plant response rating [10]	Plant response rating, Blackgrass [10]	other results
COc1ccc(NC(=O)C2C(=O)NCC2c2cccc(OC(F)F)c2)c(F)c1 (stereo not drawn) [Compound 425]	0	0	0	20	40	70	0	0	0	0	0	0	0	0	0	0	20	30	0	0	Corn plant response rating [11]: 0; Plant response rating, Corn [11]: 0; Foxtail, Giant plant response rating [12]: 20; Plant response rating, Foxtail, Giant [12]: 30; Pigweed plant response rating [13]: 0; Plant response rating, Pigweed [13]: 0; Ragweed plant response rating [14]: 0; Plant response rating, Ragweed [14]: 0; Ryegrass, Italian plant response rating [15]: 0; Plant response rating, Ryegrass, Italian [15]: 0; Wheat plant response rating [16]: 0; Plant response rating, Wheat [16]: 0; Plant response rating, Barnyardgrass ([17]; 500 g ai/ha): 0; Plant response rating, Ducksalad ([18]; 500 g ai/ha): 30; Plant response rating, Rice ([19]; 500 g ai/ha): 0; Plant response rating, Sedge, Umbrella ([20]; 500 g ai/ha): 0
CN1CC(c2ccc(Cl)cc2)C(C(=O)Nc2cccc(F)c2F)C1=O (stereo not drawn) [Compound 434]	70	80	90	90	90	100	80	90	50	60	60	90	60	60	70	70	90	90	50	50	Corn plant response rating [11]: 0; Plant response rating, Corn [11]: 70; Foxtail, Giant plant response rating [12]: 90; Plant response rating, Foxtail, Giant [12]: 90; Pigweed plant response rating [13]: 60; Plant response rating, Pigweed [13]: 70; Ragweed plant response rating [14]: 20; Plant response rating, Ragweed [14]: 20; Ryegrass, Italian plant response rating [15]: 0; Plant response rating, Ryegrass, Italian [15]: 50; Wheat plant response rating [16]: 20; Plant response rating, Wheat [16]: 70; Plant response rating, Barnyardgrass ([17]; 250 g ai/ha): 70; Plant response rating, Ducksalad ([18]; 250 g ai/ha): 100; Plant response rating, Rice ([19]; 250 g ai/ha): 0; Plant response rating, Sedge, Umbrella ([20]; 250 g ai/ha): 0
